From the NIST ThermoML archive (doi:10.1016/j.fluid.2014.11.009)

Columns and labels:
[1] = 101 kPa, Liquid; for viscosity: Cone and plate viscometry; for mass density: Vibrating tube method
[2] = xn = mol fraction of the nth substance listed; conditions: 101 kPa, Liquid; for mass density: Vibrating tube method; for viscosity: Cone and plate viscometry

CN(CCO)CCO [N-methyldiethanolamine]
[1]
Conditions | mass density [kg/m3] | viscosity [mPa·s]
303.2 K | – | 56.3
313.2 K | 1026.7 | 34.44
323.2 K | 1018.9 | 22.93

CN(CCO)CCO [N-methyldiethanolamine] + O
[2]
Conditions | mass density, x1 = 0.0192 [kg/m3] | mass density, x1 = 0.1168 [kg/m3] | viscosity, x1 = 0.0192 [mPa·s] | viscosity, x1 = 0.1168 [mPa·s]
293.2 K | 1011.8 | 1043.3 | – | –
298.2 K | 1008.9 | 1040.4 | – | –
303.2 K | 1005.8 | 1037.3 | 1.568 | 6.671
313.2 K | 999.7 | 1030.8 | 1.178 | 4.706
323.2 K | 993.1 | 1024.1 | 0.796 | 3.057
333.2 K | 983.8 | 1016.9 | 0.688 | 2.193
343.2 K | 977.9 | 1009.4 | – | 1.589
353.2 K | 970.1 | 1001.7 | – | 1.194
363.2 K | 962 | 993.5 | – | –

NC(N)=[NH2+].O=S(=O)([O-])C(F)(F)F [guanidinium trifluoromethanesulfonate] + O
[2]
Conditions | mass density, x1 = 0.0202 [kg/m3] | mass density, x1 = 0.2073 [kg/m3] | viscosity, x1 = 0.0018 [mPa·s] | viscosity, x1 = 0.0056 [mPa·s] | viscosity, x1 = 0.0095 [mPa·s] | viscosity, x1 = 0.0137 [mPa·s] | viscosity, x1 = 0.0181 [mPa·s] | viscosity, x1 = 0.0202 [mPa·s] | viscosity, x1 = 0.2073 [mPa·s]
293.2 K | 1087.8 | 1125 | – | – | – | – | – | – | –
298.2 K | 1084 | 1120.3 | – | – | – | – | – | – | –
303.2 K | 1080.8 | 1116.9 | 0.7366 | 0.7996 | 0.8208 | 0.8616 | 0.9134 | 0.9855 | 1.361
313.2 K | 1073.9 | 1110.6 | 0.6512 | 0.6757 | 0.6976 | 0.7326 | 0.8268 | 0.8374 | 1.098
323.2 K | 1067.4 | 1103.8 | 0.6047 | 0.6289 | 0.6517 | 0.6872 | 0.7268 | 0.7438 | 0.9221
333.2 K | 1059.3 | 1097.5 | 0.5555 | 0.5686 | 0.5834 | 0.6095 | 0.6302 | 0.6544 | 0.67
343.2 K | 1050.9 | 1088.8 | – | – | – | – | – | – | –
353.2 K | 1043.2 | 1080 | – | – | – | – | – | – | –
363.2 K | 1035 | 1072.1 | – | – | – | – | – | – | –
